From US20220041681A1 (MEDIMMUNE LIMITED, priority 2016, published 2022)
Read-outs that look alike come from different tables or passages of the source.

Tests used:
[1] = Stability testing of peptides in plasma; assay type: in vitro ADME, mouse; conditions: mouse, 24 h, 2 μmol/L
Description: (§1) Stability testing of peptides in plasma.
(§2) Stock solutions of the peptides of about 200 μmol/L was prepared by weighing solid peptide into a Eppendorf Low Bind Tube and dissolved in DMSO. 10 μL of stock solutions were added to 990 μL of plasma in an Eppendorf Low Bind Tube, resulting in initial concentrations of the peptides in plasma of about 2 μmol/L. The frozen blank plasma from human, rat and mouse had been thawed and heated to a temperature of 37° C. before addition of the stock solution. The spiked plasma samples were gently mixed and allowed to equilibrate for about 5 minutes before start of experiment. The plasma samples were incubated for 48 hours in a GalaxyR CO2 incubator at 37° C. Sampling (30 μL) was performed at 0, 1, 2, 6.5, 17, 24 and 48 hours. The samples were stored at −70° C. until analysis.
(§3) Plasma samples were assayed as follows. The 30 μL plasma samples were protein precipitated with […] of cold ethanol in a 96-well low bind plate (Eppendorf Protein LoBind). After mixing and centrifugation, 100 μl the supernatant was transferred to a new plate and 1 μl was injected onto an analytical column.
(§4) The analysis was performed using a μLC-system (LC Exigent μLC) coupled to a medium high resolution mass spectrometer (Perkin Elmer PenTOF) with positive electrospray ionisation. The analytical column was a 5 cm, 1 mm Agilent Poroshell (custom made) C18-column with a particle size of 2.7 μm. Flow: 0.1 ml/min using a slow reversed phase gradient. Mobile phases used were acetonitrile and water containing 0.1% formic acid.
The resulting data were manually evaluated for the following degradation products: +1 product (acid) and the DPP IV-cleavage product. Products with +1 mass may arise from deamidation at amide groups of glutamine or at the C-terminus. Cleavage products arise from the action of the protease DPP IV in plasma. Both the degradation of the peptides and formation of peptide products were reported in percentage of the initial peptide concentration. Peaks were integrated and % remaining peptide was calculated: (peak area/peak area 0H)*100. […]

human serum albumin = human serum albumin (Homo sapiens, UniProt P02768); test: Fraction of free peptide calculated from variation in cAMP generation with HSA concentration; conditions: human
Description: Data was transformed to % Delta F as described in manufacturer's guidelines and analysed by 4-parameter logistic fit to determine EC50 values. […] To compare the balance of activities at the GLP1R and GlucR between different peptides and across different conditions, these can be correlated using the calculation below, where the EC50's are related to those of the natural ligands.

[2] = test system: overweight or obese subjects with type 2 diabetes mellitus (T2DM); test: Phase 1/2 multiple-ascending dose study Part I (Cohorts 1-4)
Description: A Phase 1/2, randomized, double-blind, multiple-ascending dose study is performed in two parts (A and B).
Part A consists of 3 cohorts.
Part B consists of 1 cohort.
The initial dose is 100 μg. […] The study duration for each subject varies by cohort and consists of an inpatient multiple-ascending dose (MAD) or up-titration evaluation period (beginning on Day −2 and ending after Day 8 for Cohort 1, Day 12 for Cohort 2, Day 16 for Cohort 3, and Day 13 for Cohort 4) and an outpatient follow-up period.
The subject remains in the facility for observation and safety tests including ECGs, telemetry, monitoring of vital signs, and assessments of the injection site for potential reactions throughout the day and during the treatment period.
Mixed-meal test (MMT) procedures are performed on Day −1 and on the last day of the highest dose level achieved for all cohorts. […] For the MMT, the subject consumes a standardized meal (Ensure Plus %) within 5 minutes, and timed serial blood samples are obtained for measurement of glucose and parameters related to glucose metabolism just before and through 240 minutes after consumption of the standandized meal. During the inpatient period, finger prick glucose samples are collected 15 minutes prior to and 2 hours after breakfast, mid-day, and evening meals, and prior to going to bed.
Cohort 4 subjects are re-admitted for an overnight inpatient stay at the end of the at-home self-administration period to collect the final endpoints.
Subjects are discharged from the unit the day after the final dose is administered in the study.
Missing measurements at the end of treatment are replaced with the last available measurement. The comparison is conducted at a two-sided significance level of 0.1.

[3] = assay type: in vitro ADME, human; conditions: human, 24 h, 2 μmol/L
Description: as §1, §2, §3, §4
The resulting data were manually evaluated for the following degradation products: +1 product (acid) and the DPP IV-cleavage product. Products with +1 mass may arise from deamidation at amide groups of glutamine or at the C-terminus. Cleavage products arise from the action of the protease DPP IV in plasma. Both the degradation of the peptides and formation of peptide products were reported in percentage of the initial peptide concentration. Peaks were integrated and % remaining peptide was calculated: (peak area/peak area 0H)*100. Levels of deamidation and DPP IV cleavage were low for G797 and G933.

[4] = Cohort 4, 200 ug, n = 25 active

Sequence of human serum albumin (P02768 25-609): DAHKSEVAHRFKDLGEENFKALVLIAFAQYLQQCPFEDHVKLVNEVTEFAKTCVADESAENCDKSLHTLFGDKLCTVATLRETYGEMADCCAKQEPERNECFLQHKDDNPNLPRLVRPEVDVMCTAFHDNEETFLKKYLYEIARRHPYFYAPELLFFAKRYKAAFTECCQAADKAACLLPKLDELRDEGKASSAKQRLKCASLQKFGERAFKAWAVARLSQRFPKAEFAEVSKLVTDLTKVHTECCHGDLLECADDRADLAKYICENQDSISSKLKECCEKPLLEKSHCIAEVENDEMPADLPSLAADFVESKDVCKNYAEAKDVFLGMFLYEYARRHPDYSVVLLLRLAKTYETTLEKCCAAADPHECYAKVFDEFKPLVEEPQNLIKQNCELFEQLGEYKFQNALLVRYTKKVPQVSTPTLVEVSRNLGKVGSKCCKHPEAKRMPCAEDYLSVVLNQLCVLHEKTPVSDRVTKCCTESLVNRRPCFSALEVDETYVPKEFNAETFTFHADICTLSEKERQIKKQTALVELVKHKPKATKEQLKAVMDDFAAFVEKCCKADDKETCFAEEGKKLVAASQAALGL

CCCCCCCCCCCCCCCC(=O)N[C@@H](CCC(=O)NCCCC[C@H](NC(=O)[C@H](CC(=O)O)NC(=O)[C@H](CO)NC(=O)C(NC(=O)[C@H](Cc1ccccc1)NC(=O)C(NC(=O)CNC(=O)[C@H](CCC(N)=O)NC(=O)[C@H](CO)NC(=O)[C@@H](N)Cc1cnc[nH]1)[C@@H](C)O)[C@@H](C)O)C(=O)N[C@@H](CO)C(=O)N[C@@H](CCC(=O)O)C(=O)N[C@@H](Cc1ccc(O)cc1)C(=O)N[C@@H](CC(C)C)C(=O)N[C@@H](CC(=O)O)C(=O)N[C@@H](CO)C(=O)N[C@@H](CCC(=O)O)C(=O)N[C@@H](CCCNC(=N)N)C(=O)N[C@@H](C)C(=O)N[C@@H](CCCNC(=N)N)C(=O)N[C@@H](CC(=O)O)C(=O)N[C@@H](Cc1ccccc1)C(=O)N[C@H](C(=O)N[C@@H](C)C(=O)N[C@@H](Cc1c[nH]c2ccccc12)C(=O)N[C@@H](CC(C)C)C(=O)N[C@@H](CCC(=O)O)C(=O)N[C@@H](C)C(=O)NCC(=O)NCC(=O)O)C(C)C)C(=O)O (stereo partly shown) [Peptide G933]
% stable peptide [1]: 83% | free peptide at 4.4% HSA (human serum albumin): 0.29% | Fasting Glucose (change) ([2]; Cohort 1, 100 ug, n = 6 active): -28.00 mg/dL | Glucose AUG (change) ([2]; Cohort 1, 100 ug, n = 6 active): −27.3 | Weight (change) ([2]; Cohort 1, 100 ug, n = 6 active): -1.1 kg | Fasting Glucose (change) ([2]; Cohort 2, 150 ug, n = 6 active): -17.90 mg/dL | Glucose AUG (change) ([2]; Cohort 2, 150 ug, n = 6 active): −8.9 | Weight (change) ([2]; Cohort 2, 150 ug, n = 6 active): -0.5 kg | weight differential ([2]; Cohort 3): more than 2 kg | Fasting Glucose (change) ([2]; Cohort 3, 200 ug, n = 6 active): -43.20 mg/dL | Glucose AUG (change) ([2]; Cohort 3, 200 ug, n = 6 active): −31.6 | Weight (change) ([2]; Cohort 3, 200 ug, n = 6 active): -2.4 kg | reduction in liver volume compared to placebo ([2]; Cohort 4): 0.14 L | Death (grade 5 severity) ([2]; Cohort 4, 200 μg, N = 25): 0 | Subject with at least one G933-related serious event ([2]; Cohort 4, 200 μg, N = 25): 0 | Subject with at least one event ([2]; Cohort 4, 200 μg, N = 25): 22 (88.8%) | Subject with at least one event leading to discontinuation of G933 ([2]; Cohort 4, 200 μg, N = 25): 3 (12.0%) | Subject with at least one event of ≥ grade 3 severity ([2]; Cohort 4, 200 μg, N = 25): 0 | Subject with at least one serious event ([2]; Cohort 4, 200 μg, N = 25): 0 | Fasting Glucose (change) [2, 4]: -31.62 mg/dL | Glucose AUG (change) [2, 4]: −22.5 | patients who vomited ([2]; Cohort 4, 8 patients): 32.0% | patients reporting nausea ([2]; Cohort 4, 13 patients): 52.0% | patients who lost at least 2% of their weight ([2]; Cohort 4, 41 days): 84% | patients who lost at least 5 kg ([2]; Cohort 4, 41 days): 44% | percent weight loss difference between G933 and placebo ([2]; Cohort 4, 41 days): 2.47% | weight loss difference between G933 and placebo ([2]; Cohort 4, 41 days): 2.12 kg | increase in heart rate ([2]; Cohort 4, Day 41): 6.9 bpm | percent of weight lost ([2]; Cohort 4, after 41 days): about 4.18% | weight lost ([2]; Cohort 4, after 41 days): about 3.83 kg | HbA1c reduction ([2]; Cohort 4, after 41 days of treatment): 0.92% | mean HbA1c on day 42 ([2]; Cohort 4, baseline mean […]): 6.3% | mean reduction in glucose AUC from baseline (day 1) to day 41 ([2]; Cohort 4, up to 200 μg): 38.5% | patients with vomiting ([2]; Cohorts 1-3 (n=5)): 26% | weight loss ([2]; Cohorts 1-3, dose dependent trend): up to 2 kg | mixed-meal test glucose AUC reduction ([2]; across Cohorts 1-3 (100-200 μg QD)): > 40% | increase in pulse rate ([2]; each of Cohorts 1-3): about 10 bpm | Between-subject variability in Cmax ([2]; larger Cohort 4): 40-50% | anti-G933 antibody ([2]; post baseline, Cohorts 1-3): Only one sample was confirmed positive | Between-subject variability in Cmax ([2]; smaller cohorts, Parts I and II): 20-30% | % DPP cleaved product/+1 DPP cleaved product [3]: <1% | % stable peptide [3]: 86% | Levels of deamidation and DPP IV cleavage ([3]; rat, mouse): low
